Bounds are passed on as bounds.

One may read the IC50 as the concentration needed to halve the response being measured.

The target of one assay is GPR84 (Homo sapiens, UniProt Q9NQS5). Put plainly: GPR84 antagonistic activity, calcium flux (Fluo-4) assay with agonist 6-OAU. More on the design: expressed in transfected cells; host or cells: HEK293. It is filed as cell-based.
GPR84, sequence (Q9NQS5 whole entry): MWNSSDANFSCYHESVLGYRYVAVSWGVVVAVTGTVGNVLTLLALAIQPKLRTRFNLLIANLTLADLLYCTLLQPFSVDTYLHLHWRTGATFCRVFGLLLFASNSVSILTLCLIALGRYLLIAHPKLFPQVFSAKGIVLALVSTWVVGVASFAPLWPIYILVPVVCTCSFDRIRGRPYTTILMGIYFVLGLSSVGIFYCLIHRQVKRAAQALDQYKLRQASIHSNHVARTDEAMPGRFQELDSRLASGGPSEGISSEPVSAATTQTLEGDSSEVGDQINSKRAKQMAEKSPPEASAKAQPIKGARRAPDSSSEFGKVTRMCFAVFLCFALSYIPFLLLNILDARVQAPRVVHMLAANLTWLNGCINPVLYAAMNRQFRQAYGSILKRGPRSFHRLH
Conditions: not given
On the procedure: The human GPR84 cell line was obtained by transfecting a HEK293 cell line with a plasmid encoding GPR84 and Gα16 proteins. Fluorescent dye Fluo-4AM was purchased from Invitrogen.
Intracellular Ca^2+ ion is a very important second messenger of G protein-coupled receptor signaling pathway. […] Fluo-4 is a Ca^2+ ion-specific fluorescent probe that binds quantitatively to Ca^2+ ions and emits fluorescence.
Detection of receptor inhibitory effect by GPR84 antagonist: After incubated with fluorescent dye Fluo-4, GPR84 cells were incubated with different concentrations of antagonistic compounds for a period of time to occupy the binding site of agonist to GPR84 (antagonistic binding site). A certain concentration of agonist (6-n-octylaminouracil, 6-OAU) was added to compete with the antagonist compound for binding sites. […] The half-inhibitory concentration (IC50) of the compound was calculated by using GraphPad PRISM software.
The above ingredients were weighed and dissolved in ultrapure water. pH was adjusted to 7.4 by using hydrochloric acid or NaOH solution. The mixture was filtered and stored at 4° C. for one month.
The buffer was prepared on site.
The cells were seeded in a 96-well plate at a density of 4×10^4 cells/well. After 24 hours of culture, the culture medium was removed, and 40 μL of Fluo-4AM fluorescent staining solution was added to each well and incubated in a 37° C. incubator for 40 minutes. After the dye was aspirated and discarded, 50 μL of the tested compound was added and incubated at room temperature for 10 minutes.
Background: Calcium flux is commonly read through the fluorescence of an indicator in the cells.
For `COc1cccc2c1Sc1ccccc1C=C2OP(=O)(O)Oc1cccc2ccccc12` [LSX462a], the IC50 is 100 to 1000 nM.
For `COc1cccc2c1Sc1ccccc1C=C2OP(=O)(O)OC1CCOC1` (stereo not shown) [LSX406], the IC50 lay in the range of 1000 to 10000 nM.
Regarding `CCCCCc1ccc(OP(=O)(O)OC2=Cc3ccccc3Sc3c(OC)cccc32)cc1` [LSX482c], the IC50 lay within 100 to 1000 nM.
With `COc1cccc2c1Sc1ccccc1C=C2OP(=O)(O)Oc1ccccc1C(C)C` [LSX454], the IC50 lay in the range of 1000 to 10000 nM.
Turning to `COc1cccc2c1Sc1ccccc1C=C2OP(=O)(O)Oc1ccc2ccccc2c1` [LSX462b], the IC50 was 100 to 1000 nM.
As to `COc1cccc2c1Sc1ccccc1C=C2OP(=O)(O)Oc1cc(C(C)C)ccc1C` [LSX468b], the IC50 was 100 to 1000 nM.
For the molecule `COc1cccc2c1Sc1ccccc1C=C2OP(=O)(O)Oc1ccc([N+](=O)[O-])cc1` [LSX457], the IC50 is 1000 to 10000 nM.
On the same count and under the same terms, in the case of `CCCCCCCCP(=O)(O)OC1=Cc2ccccc2Sc2c(OC)cccc21` [LSX432] it was 100 to 1000 nM; in that of `COc1cccc2c1Sc1ccccc1C=C2OP(=O)(O)Oc1cc(C)ccc1C(C)C` [LSX468a], 100 to 1000 nM; in that of `COc1ccc(OP(=O)(O)OC2=Cc3ccccc3Sc3c(OC)cccc32)cc1` [LSX442], 100 to 1000 nM.
For `COc1cccc2c1Sc1ccccc1C=C2OP(=O)(O)Oc1ccc(F)cc1` [LSX430], the IC50 lay in the range of 1000 to 10000 nM.
For `COc1cccc2c1Sc1ccccc1C=C2OP(=O)(O)Oc1ccc(Br)cc1` [LSX491a], the IC50 lay in the range of 100 to 1000 nM.
Same read-out and setting: in the case of `CCCCCc1ccccc1OP(=O)(O)OC1=Cc2ccccc2Sc2c(OC)cccc21` [LSX482a] it was 100 to 1000 nM; in that of `COc1cccc2c1Sc1ccccc1C=C2OP(=O)(O)Oc1c(C(C)C)cccc1C(C)C` [LSX496], 1000 to 10000 nM.
As for `CCCCCc1cc(CCCCC)cc(OP(=O)(O)OC2=Cc3ccccc3Sc3c(OC)cccc32)c1` [LSX552], the IC50 was in the range of 100 to 1000 nM.
In the case of `CCCCCc1cccc(OP(=O)(O)OC2=Cc3ccccc3Sc3c(OC)cccc32)c1` [LSX482b], the IC50 is below 100 nM.
`COc1cccc2c1Sc1ccccc1C=C2OP(=O)(O)Oc1cc(Cl)ccc1Cl` [LSX480]: the IC50 lay within 100 to 1000 nM.
As to `COc1cccc2c1Sc1ccccc1C=C2OP(=O)(O)Oc1ccc(Oc2ccccc2)cc1` [LSX504], the IC50 fell in the range of 1000 to 10000 nM.

Staying with this assay, now noted: HEK293 cells with GPR84 and Gα16; Fluo-4 calcium signal; agonist 6-OAU around EC80.
On to `CC1(C)[C@@H]2CC[C@@]1(C)[C@H](OP(=O)(O)OC1=Cc3c(Cl)cccc3Sc3ccccc31)C2` [LSX476g], for which the IC50 was below 100 nM.

Staying with this assay, now noted: HEK293 cells with GPR84 and Gα16; Fluo-4 calcium signal; agonist 6-OAU around EC80; read-out: IC50.
Turning to `COc1cccc2c1Sc1ccccc1C=C2OP(=O)(O)N1CCC(C)(C)CC1` [LSX431], the IC50 is 1000 to 10000 nM.

Staying with this assay, now noted: IC50, HEK293 cells with GPR84 and Gα16; Fluo-4 calcium signal; agonist 6-OAU around EC80.
Consider `COc1cccc2c1Sc1ccccc1C=C2OP(=O)(O)OC1C(C)(C)CCCC1(C)C` [LSX474-3], for which the IC50 was in the range of 100 to 1000 nM.
With `CC1(C)[C@@H]2CC[C@@]1(C)[C@@H](OP(=O)(O)OC1=Cc3c(Cl)cccc3Sc3ccccc31)C2` [LSX476c], the IC50 lay in the range of 100 to 1000 nM.
`CC1(C)[C@H]2CC[C@]1(C)[C@H](OP(=O)(O)OC1=Cc3ccccc3Sc3ccccc31)C2` [LSX442a]: the IC50 lay in the range of 100 to 1000 nM.
For `CCCCCCOP(=O)(O)OC1=Cc2ccccc2Sc2c(OC)cccc21` [LSX420-3], the IC50 is 100 to 1000 nM.
The same measure, in the same setting: in the case of `COc1cccc2c1Sc1ccccc1C=C2OP(=O)(O)OCCCCCCCCF` [LSX466] it was 1000 to 10000 nM; in that of `COc1cccc2c1Sc1ccccc1C=C2OP(=O)(O)OCCc1ccccc1` [LSX440], 1000 to 10000 nM; in that of `COc1cccc2c1Sc1ccccc1C=C2OP(=O)(O)O[C@@H]1CC[C@@]2(C)[C@@H](C1)C[C@@H](O)[C@@H]1[C@@H]2C[C@H](O)[C@]2(C)[C@@H]([C@H](C)CCC(=O)O)CC[C@@H]12` [LSX726], 1000 to 10000 nM.
The same measure, in the same setting: for `COc1cccc2c1Sc1ccccc1C=C2OP(=O)(O)OC` [LSX350] the value was 1000 to 10000 nM; for `COc1cccc2c1Sc1ccccc1C=C2OP(=O)(O)OC1C2CC3CC(C2)CC1C3` (stereo not shown) [LSX470b], 100 to 1000 nM; for `COc1cccc2c1Oc1ccccc1C=C2OP(=O)(O)O[C@@H]1C(C)(C)[C@@H]2CC[C@@]1(C)C2` [LSX456j], 1000 to 10000 nM.
Turning to `CC1(C)[C@H]2CC[C@]1(C)[C@H](OP(=O)(O)OC1=Cc3c(Cl)cccc3Sc3ccccc31)C2` (racemic) [LSX476d], the IC50 lay in the range of 100 to 1000 nM.
For the molecule `CC1(C)[C@@H]2CC[C@@]1(C)[C@H](OP(=O)(O)OC1=Cc3c(Cl)cccc3Sc3ccccc31)C2` (racemic) [LSX476b], the IC50 is below 100 nM.
With `COc1cccc2c1Sc1ccccc1C=C2OP(=O)(O)OC12CC3CC(C1)C(Nc1c(C(N)=O)cnc4[nH]ccc14)C(C3)C2` (stereo not shown) [LSX644], the IC50 lay within 1000 to 10000 nM.
In the case of `COc1cccc2c1Sc1ccccc1C=C2OP(=O)(O)OC1CCCCC1C` (stereo not shown) [LSX432-2a], the IC50 was in the range of 1000 to 10000 nM.
On to `CCCCCCCCCOP(=O)(O)OC1=Cc2ccccc2Sc2c(OC)cccc21` [LSX462-3], for which the IC50 fell in the range of 100 to 1000 nM.
As to `COc1cccc2c1Sc1ccccc1C=C2OP(=O)(O)O[C@@H]1CC[C@@]2(C)C(CC[C@H]3[C@@H]4CC[C@H]([C@H](C)CCC(=O)O)[C@@]4(C)CC[C@@H]32)C1` (stereo partly shown) [LSX694], the IC50 fell in the range of 100 to 1000 nM.
In the case of `CC1(C)[C@@H]2CC[C@@](C)(C2)[C@@H]1OP(=O)(O)OC1=Cc2ccccc2Sc2c(OC(F)(F)F)cccc21` [LSX526j], the IC50 was below 100 nM.
For the molecule `COc1cccc2c1Sc1ccccc1C=C2OP(=O)(O)OC12CC3CC(C)(CC(C)(C3)C1)C2` [LSX498], the IC50 is 100 to 1000 nM.
Consider `COC(=O)CCCCCCCOP(=O)(O)OC1=Cc2ccccc2Sc2c(OC)cccc21` [LSX492], for which the IC50 lay within 1000 to 10000 nM.
The same measure, in the same setting: in the case of `CC1(C)[C@H]2CC[C@]1(C)[C@H](OP(=O)(O)OC1=Cc3ccccc3Sc3c(OC(F)(F)F)cccc31)C2` [LSX526a] it was 100 to 1000 nM; in that of `COc1cccc2c1Sc1ccccc1C=C2OP(=O)(O)O[C@@H]1CC[C@@]2(C)C(C1)C[C@@H](O)[C@H]1[C@@H]3CC[C@H]([C@H](C)CCC(=O)O)[C@@]3(C)CC[C@@H]12` (stereo partly shown) [LSX710], 100 to 1000 nM; in that of `COc1cccc2c1Sc1ccccc1C=C2OP(=O)(O)OC12CC3CC(C1)C(Nc1ncnc4[nH]ccc14)C(C3)C2` (stereo not shown) [LSX602], below 100 nM.
In the case of `CC1(C)[C@@H]2CC[C@@](C)(C2)[C@@H]1OP(=O)(O)OC1=Cc2ccccc2Oc2ccccc21` [LSX426j], the IC50 is 1000 to 10000 nM.
For `CCCCCCCCOP(=O)(O)OC1=Cc2c(Cl)cccc2Sc2ccccc21` [LSX452], the IC50 was in the range of 100 to 1000 nM.
On to `COc1cccc2c1Sc1ccccc1C=C2OP(=O)(O)OC1CCC(C)CC1` (stereo not shown) [LSX432-2c], for which the IC50 fell in the range of 1000 to 10000 nM.
As for `CC1(C)[C@@H]2CC[C@@](C)(C2)[C@@H]1OP(=O)(O)OC1=Cc2c(F)cccc2Sc2ccccc21` [LSX460j], the IC50 lay in the range of 100 to 1000 nM.
On the same count and under the same terms, in the case of `COc1cccc2c1Sc1ccccc1C=C2OP(=O)(O)OC1CCC(C(C)(C)C)CC1` (stereo not shown) [LSX474-2] it was 100 to 1000 nM.
As to `CC1(C)[C@H]2CC[C@]1(C)[C@H](OP(=O)(O)OC1=Cc3c(Cl)cccc3Sc3ccccc31)C2` [LSX476a], the 50% inhibitory concentration (IC50) was below 100 nM.
For `COc1cccc2c1Sc1ccccc1C=C2OP(=O)(O)OCCCCCCCCBr` [LSX527], the IC50 was in the range of 100 to 1000 nM.
As for `COc1cccc2c1Sc1ccccc1C=C2OP(=O)(O)O[C@H]1C[C@@H](C)CC[C@@H]1C(C)C` [LSX474b], the IC50 is below 100 nM.
`COc1cccc2c1Sc1ccccc1C=C2OP(=O)(O)OCCCNC(=O)CC[C@@H](C)[C@H]1CC[C@H]2[C@@H]3[C@H](O)C[C@@H]4C[C@H](O)CC[C@]4(C)[C@H]3C[C@H](O)[C@]12C` [LSX784]: the IC50 lay in the range of 1000 to 10000 nM.
As for `CC1CC(C(C)(C)C)C(OP(=O)(O)OC2=Cc3c(Cl)cccc3Sc3ccccc32)C(C(C)(C)C)C1` (stereo not shown) [LSX548], the IC50 lay in the range of 1000 to 10000 nM.
In the case of `CC1(C)[C@H]2CC[C@]1(C)[C@H](OP(=O)(O)OC1=Cc3c(F)cccc3Sc3ccccc31)C2` [LSX460a], the IC50 fell in the range of 100 to 1000 nM.
Consider `CC1(C)[C@@H]2CC[C@@](C)(C2)[C@@H]1OP(=O)(O)OC1=Cc2ccccc2Sc2ccccc21` [LSX442j], for which the IC50 is 1000 to 10000 nM.
Turning to `COc1cccc2c1Sc1ccccc1C=C2OP(=O)(O)OC1C(C)CCCC1C` (stereo not shown) [LSX446-2], the IC50 was in the range of 1000 to 10000 nM.
Regarding `COc1cccc2c1Sc1ccccc1C=C2OP(=O)(O)OC12CC3CC(CC(C3)C1)C2` [LSX470a], the IC50 was in the range of 100 to 1000 nM.
Turning to `COc1cccc2c1Sc1ccccc1C=C2OP(=O)(O)O[C@@H]1C[C@H](C)CC[C@H]1C(C)C` [LSX474a], the half-inhibitory concentration (IC50) was below 100 nM.
Consider `CC1(C)[C@H]2CC[C@]1(C)[C@@H](OP(=O)(O)OC1=Cc3c(Cl)cccc3Sc3ccccc31)C2` [LSX476h], for which the IC50 lay in the range of 100 to 1000 nM.
The same measure, in the same setting: for `CC/C=C\CCCCOP(=O)(O)OC1=Cc2ccccc2Sc2c(OC)cccc21` [LSX446] the value was 100 to 1000 nM; for `COc1cccc2c1Sc1ccccc1C=C2OP(=O)(O)OCC1CC2CCC1C2` (stereo not shown) [LSX444-2], 100 to 1000 nM.

Still in this assay, the particulars now being: read-out: IC50.
Turning to `COc1cccc2c1Sc1ccccc1C=C2OP(=O)(O)OC1COC(C)(C)C1` (stereo not shown) [LSX434-2], the concentration for half-maximal inhibition (IC50) was 1000 to 10000 nM.

(Values after US20240342201A1, “ASYMMETRIC GPR84 ANTAGONIST AND USE THEREOF” (priority 2021, published 2024).)
